# Test results: publication PMC11359809, “Probing the molecular basis for signal transduction through the Zinc-Activated Channel (ZAC)” (Biochemical pharmacology, 2021)
# Assays:
# Type in all cases: cell-based
# [1] = target: T1, ZAC^E89A/D105A (Homo sapiens, UniProt Q401N2, A152T/D129A/E113A); assay: TEVC in oocytes, ZAC E89A/D105A mutant
# T1 construct: expressed in transfected cells; host or cells: Xenopus oocytes injected with cRNA (pUNIV vector)
# Method: (§1) The recordings were performed at room temperature.
# (§2) Analysis of the data from the TEVC recordings were performed using Clampfit software version 10.5 (Molecular Devices, Crawley, UK) and GraphPad Prism version 7.0c (GraphPad Software, La Jolla, CA). Unless otherwise stated, the inward currents induced by agonists in oocytes were normalized to the maximal response elicited by a specific agonist (agonist Imax) on each oocyte. Concentration-response and concentration-inhibition curves were fitted in GraphPad Prism by nonlinear regression using the equation for sigmoidal dose-response with variable slope. Each data point represents the mean ± S.E.M. value of recordings performed on at least five oocytes in total from at least two different batches. […] The null hypothesis was rejected at P < 0.05, and the differences between the means were analyzed by Tukey’s multiple comparisons test.
# (§3) The putative involvement of candidate residues in Clusters 1, 2, 3 and 4 in Zn^2+ binding to ZAC was investigated in by an elaborate alanine mutagenesis scanning. […] The determined IpH 4.0 value was used in part as a control and in part to enable the distinction of ZAC mutants non-responsive to Zn^2+ due to elimination of their ability to bind the metal ion from those where the mutation had eliminated cell surface expression and/or disrupted overall functionality of the receptor complex. […]
# [2] = target: T2, ZAC^E136A/H139A/D143A/H144A (Homo sapiens, UniProt Q401N2, A152T/D167A/E160A/H163A/H168A); assay: TEVC in oocytes, Cluster 2 quadruple mutant; details: Zn^2+ 10 mM; H^+ pH 4.0; data not shown
# T2 construct: expressed in transfected cells; host or cells: Xenopus oocytes injected with cRNA (pUNIV vector)
# Method: as §1, §2, §3
# [3] = target: T3, ZAC^H166A (Homo sapiens, UniProt Q401N2, A152T/H190A); assay: TEVC in oocytes, ZAC H166A mutant
# T3 construct: expressed in transfected cells; host or cells: Xenopus oocytes injected with cRNA (pUNIV vector)
# Method: as §1, §2, §3
# [4] = target: T4, ZAC^D105A/D108A (Homo sapiens, UniProt Q401N2, A152T/D129A/D132A); assay: TEVC in oocytes, ZAC D105A/D108A mutant; details: 10 mM Zn^2+; data not shown
# T4 construct: expressed in transfected cells; host or cells: Xenopus oocytes injected with cRNA (pUNIV vector)
# Method: as §1, §2, §3
# [5] = target: T5, m5-HT3A/ZAC (Mus musculus / Homo sapiens, UniProt P23979); assay: TEVC in oocytes expressing m5-HT3A/ZAC chimera
# T5 sequence (P23979 24-246): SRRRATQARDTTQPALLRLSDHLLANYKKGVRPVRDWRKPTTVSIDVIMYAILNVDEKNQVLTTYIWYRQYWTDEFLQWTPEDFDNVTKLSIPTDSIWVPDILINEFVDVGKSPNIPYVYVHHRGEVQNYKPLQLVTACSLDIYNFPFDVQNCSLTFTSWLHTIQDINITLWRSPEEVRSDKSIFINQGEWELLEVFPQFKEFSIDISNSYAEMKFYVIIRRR
# T5 sequence (Q401N2 231-412 partner): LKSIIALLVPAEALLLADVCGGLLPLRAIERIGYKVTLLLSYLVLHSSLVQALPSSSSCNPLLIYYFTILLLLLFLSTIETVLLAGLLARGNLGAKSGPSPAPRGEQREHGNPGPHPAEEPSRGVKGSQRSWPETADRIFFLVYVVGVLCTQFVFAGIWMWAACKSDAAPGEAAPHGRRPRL
# Description: The construction of the ZAC-pUNIV plasmid (encoding for the human WT ZAC that contains a Thr in position 128) has been described previously. The m5-HT3A and hα1 GlyR cDNAs were subcloned from their original vectors into pUNIV (Addgene, Watertown, MA) using NheI and EcoRI as restriction enzymes. […] The C-terminus modifications in these four chimeras were introduced in their cDNAs in the same way. Point mutations were introduced in cDNAs by use of the QuikChange mutagenesis kit (Stratagene, San Diego, CA). The validity and absence of unwanted mutations in the constructed cDNAs was verified by DNA sequencing (Macrogen Europe, Amsterdam, The Netherlands).
# All cDNAs used for cRNA synthesis were inserted in the pUNIV vector. The cDNAs were linearized and subsequently transcribed and capped using the mMessage mMachine T7 RNA transcription kit (Ambion, Waltham, MA). […] Oocytes were incubated in a sterile modified Barth’s solution [88 mM NaCl, 1 mM KCl, 15 mM HEPES (pH 7.5), 2.4 mM NaHCO3, 0.41 mM CaCl2, 0.82 mM MgSO4, 0.3 mM Ca(NO3)2, 100 U/ml penicillin and 100 μg/ml streptomycin] at 16–18 °C. Based on experience gained with WT ZAC in a recent study, all TEVC recordings were performed two days after cRNA injection.
# On the day of the TEVC recording, all compound dilutions were prepared in a saline solution [115 mM NaCl, 2.5 mM KCl, 10 mM MOPS (pH 7.5), 1.8 mM CaCl2, 0.1 mM MgCl2], and pH was adjusted to 7.5 (if needed). Oocytes were placed in a recording chamber continuously perfused with this saline solution, and the compounds were applied in the perfusate. Both voltage and current electrodes were agar-plugged with 3 M KCl with a resistance of 0.2–2.0 MΩ. Oocytes were voltage-clamped at −50 mV (except in the studies of the chimeras and their parent receptors where they were clamped at −60 mV, section 3.1), by a Gene Clamp 500B amplifier, and current signals were digitized by a Digidata 1322A (both from Axon Instruments, Union City, CA). Currents were recorded using pCLAMP 10 (Molecular Devices, Sunnyvale, CA). The recordings were performed at room temperature.
# In all recordings, compounds or compound combinations were applied in the bath until the peak current decayed to a steady state (up to 30 s). […] The antagonist properties of compounds were determined by pre-application of the compound to the perfusate for 30 s followed by co-application of the compound and the agonist. In all recordings, washes of 1–5 min were executed between the ligand applications, the length of the washes depending on the agonist concentrations used and on the return to baseline current amplitude.
# Analysis of the data from the TEVC recordings were performed using Clampfit software version 10.5 (Molecular Devices, Crawley, UK) and GraphPad Prism version 7.0c (GraphPad Software, La Jolla, CA). Unless otherwise stated, the inward currents induced by agonists in oocytes were normalized to the maximal response elicited by a specific agonist (agonist Imax) on each oocyte. Concentration-response and concentration-inhibition curves were fitted in GraphPad Prism by nonlinear regression using the equation for sigmoidal dose-response with variable slope. Each data point represents the mean ± S.E.M. value of recordings performed on at least five oocytes in total from at least two different batches. For the data where statistical analysis was performed, a one-way ANOVA was used. The null hypothesis was rejected at P < 0.05, and the differences between the means were analyzed by Tukey’s multiple comparisons test.
# T4 sequence (Q401N2 26-412 D129A/D132A/A152T): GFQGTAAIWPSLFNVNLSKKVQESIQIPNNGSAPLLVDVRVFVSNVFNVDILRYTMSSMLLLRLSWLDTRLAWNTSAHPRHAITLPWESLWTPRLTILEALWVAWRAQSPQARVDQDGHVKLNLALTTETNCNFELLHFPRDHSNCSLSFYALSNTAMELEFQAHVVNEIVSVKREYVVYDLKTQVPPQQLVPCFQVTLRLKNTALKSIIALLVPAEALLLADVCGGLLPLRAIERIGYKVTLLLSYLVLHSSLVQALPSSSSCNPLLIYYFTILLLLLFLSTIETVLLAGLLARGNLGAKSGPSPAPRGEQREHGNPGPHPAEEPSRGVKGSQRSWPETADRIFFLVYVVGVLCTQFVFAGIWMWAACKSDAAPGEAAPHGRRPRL
# T2 sequence (Q401N2 26-412 A152T/E160A/H163A/D167A/H168A): as the sequence (Q401N2 26-412 D129A/D132A/A152T) above, with A104D, A107D, E135A, H138A, D142A, H143A counted along it
# T3 sequence (Q401N2 26-412 A152T/H190A): as the sequence (Q401N2 26-412 D129A/D132A/A152T) above, with A104D, A107D, H165A counted along it
# T1 sequence (Q401N2 26-412 E113A/D129A/A152T): as the sequence (Q401N2 26-412 D129A/D132A/A152T) above, with E88A, A107D counted along it
structure (smiles),measurement,setting,value
"[Cl-].[Cl-].[Zn+2] [Zn^2+, ZnCl2]",concentration-response relationship compared to WT ZAC,[1],very similar to that at WT ZAC
same,agonist responsiveness,[2],non-responsive
same,agonist properties compared to WT ZAC,[3],WT-like agonist properties
same,agonist responsiveness,[4],non-responsive
same,I10 mM Zn2+ ± S.E.M.,"[5]; 10 mM Zn^2+, n = 4",0.0037 ± 0.0013 μA
same,modulation of 5-HT (EC80)-evoked currents,[5]; 5-HT 1 μM,monophasic concentration-inhibition relationship
